In ChEMBL document CHEMBL2016467, “Thiosemicarbazone fragment embedded within 1,2,4-triazole ring as inhibitors of Entamoeba histolytica” (Bioorg Med Chem Lett, 2012):

Experiments:
[1] = system: Entamoeba histolytica; assay: Antiamoebic activity against Entamoeba histolytica HM-1:IMSS trophozoites after 72 hrs by microdilution method; type: functional, organism-based
[2] = system: MCF7; assay: Cytotoxicity against human MCF7 cells after 48 hrs by MTT assay; type: cell-based; conditions: MCF7, 48 h
[3] = Cytotoxicity against human MCF7 cells assessed as cell viability at 2.5 to 100 uM after 48 hrs by MTT assay; type: cell-based; conditions: read-out: Activity
[4] = system: MCF7; assay: Cytotoxicity against human MCF7 cells assessed as cell viability at 250 uM after 48 hrs by MTT assay; type: cell-based; conditions: mcf7, 48 h

Row | SMILES | IC50 [1] | IC50 [2] | viability at 48 h, up to 100 µM [3] | Activity [4]
1 | COc1cc(/C=N/n2c(S)nnc2-c2ccccc2)cc(OC)c1OC | 2700 nM |  |  | 
2 | Nn1c(S)nnc1-c1ccccc1 | 10800 nM |  |  | 
3 | Cc1ccc(/C=N/n2c(S)nnc2-c2ccccc2)cc1 | 1380 nM | > 250000 nM | 65% | Non-toxic
4 | COc1ccc(/C=N/n2c(S)nnc2-c2ccccc2)cc1 | 322 nM | > 250000 nM | 60% | Non-toxic
5 | COc1ccc(OC)c(/C=N/n2c(S)nnc2-c2ccccc2)c1 | 8790 nM |  |  | 
6 | O=[N+]([O-])c1ccc(/C=N/n2c(S)nnc2-c2ccccc2)cc1 | 280 nM | > 250000 nM | 60% | Non-toxic
7 | CN(C)c1ccc(/C=N/n2c(S)nnc2-c2ccccc2)cc1 | 309 nM | > 250000 nM | 65% | Non-toxic
8 | FC(F)(F)c1ccccc1/C=N/n1c(S)nnc1-c1ccccc1 | 4680 nM |  |  | 
9 | S=C(N1CCC(Cc2ccccc2)CC1)N1CCC(c2cccc(Cl)c2)=N1 | 1000 nM |  |  | 
10 | Cc1nnc2n(NC(=S)NC34CC5CC(CC(C5)C3)C4)c(C)nnc1-2 | 840 nM |  |  | 
11 | O=[N+]([O-])c1ccc(/C=N/NC(=S)N2CCCCCCC2)s1 | 1710 nM |  |  | 
12 | COc1cc(/C=N/n2c(-c3ccccc3)n[nH]c2=S)ccc1O | 3050 nM |  |  | 
13 | Oc1ccc(/C=N/n2c(-c3ccccc3)n[nH]c2=S)cc1 | 10200 nM |  |  | 
14 | S=c1[nH]nc(-c2ccccc2)n1/N=C/c1ccc(Cl)cc1 | 9550 nM |  |  | 
15 | Cc1ncc([N+](=O)[O-])n1CCO [METRONIDAZOLE] |  | > 250000 nM | > 70% | Non-toxic
16 | NNC(N)=S [THIOSEMICARBAZIDE] | 2290 nM |  |  | 
